The results in this text go back to patent US20070072840A1, “POLYMORPHIC FORMS OF QUETIAPINE” (priority 2005, published 2007).

Structures can show the parent of a compound that is named as a salt.

For data set [1] the following is noted: result in words, conditions not given.
For data set [2] the following is noted: result in words, conditions not given. The source holds these as a separate data set.
The conditions of data set [3]: as compared to any other crystalline form.

Take `OCCOCCN1CCN(C2=Nc3ccccc3Sc3ccccc32)CC1` [amorphous quetiapine hydrochloride, Quetiapine Hydrochloride]: the hygroscopicity result in data set [1] is given as “non-hygroscopic”. The stability entry in data set [2] was “stable”. The solubility in water result in data set [3] is “more soluble in water”.
